Laboratory results as given in article PMC4728128, “Two-subunit DNA escort mechanism and inactive subunit bypass in an ultra-fast ring ATPase” (eLife, 2015).

Legend:
SpoIIIE [1] = target: T1, SpoIIIE (Bacillus subtilis, UniProt P21458); assay: single-molecule optical tweezers DNA translocation; type: biochemical; conditions: dsDNA, 50 mM Tris-HCl pH 7.5, 10 mM MgCl2
T1 construct: N-terminal biotin tag (PinPoint Xa-1) fused to SpoIIIE from plasmid pJB103 (Bath et al. 2000); recombinant, purified; homo-hexamer

SpoIIIE [2] = target: T1, SpoIIIE; assay: optical tweezers rupture force of SpoIIIE-DNA tether (indirect sign of nucleotide binding); conditions: 1 mM ADP, no ATP; dsDNA

T1 sequence (P21458 175-787): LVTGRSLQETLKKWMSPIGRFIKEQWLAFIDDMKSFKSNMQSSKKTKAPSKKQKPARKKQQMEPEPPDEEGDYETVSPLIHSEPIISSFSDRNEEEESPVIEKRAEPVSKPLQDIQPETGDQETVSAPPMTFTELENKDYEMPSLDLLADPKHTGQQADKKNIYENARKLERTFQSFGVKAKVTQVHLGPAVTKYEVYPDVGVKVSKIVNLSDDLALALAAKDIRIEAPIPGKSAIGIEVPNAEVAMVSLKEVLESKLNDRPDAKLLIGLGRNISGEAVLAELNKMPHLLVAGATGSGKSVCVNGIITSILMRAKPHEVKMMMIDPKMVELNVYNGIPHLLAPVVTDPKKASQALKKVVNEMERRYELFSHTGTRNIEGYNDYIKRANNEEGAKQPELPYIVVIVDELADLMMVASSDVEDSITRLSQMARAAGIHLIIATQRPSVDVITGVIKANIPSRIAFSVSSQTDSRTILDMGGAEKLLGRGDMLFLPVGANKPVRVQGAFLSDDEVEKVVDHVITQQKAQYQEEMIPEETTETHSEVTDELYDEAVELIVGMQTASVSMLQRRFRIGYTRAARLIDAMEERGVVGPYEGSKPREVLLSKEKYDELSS

## Nc1ncnc2c1ncn2[C@@H]1O[C@H](COP(=O)(O)OP(=O)(O)OP(=O)(O)O)[C@@H](O)[C@H]1O [ATP]
SpoIIIE [1]
  Km: 505 ± 50 µM

## Nc1ncnc2c1ncn2[C@@H]1O[C@H](COP(=O)(O)OP(=O)(O)O)[C@@H](O)[C@H]1O [ADP]
SpoIIIE [2]
  optical tweezers rupture force of SpoIIIE-DNA tether (indirect sign of nucleotid): In buffers containing only ADP or ATPγS, SpoIIIE could bind to DNA
